Holding throughout (test): Relative rates of hydrolysis of poly-, oligosaccharides and aryl-glycosides
What all share (format): biochemical

The target of assay [1] is WT HvExoI (Hordeum vulgare, UniProt Q9XEI3). Particulars: substance is the substrate, HvExoI at 50 pmoles, nd = activity not detected. As to the method:
(§1) Dependency of activities of WT and mutant HvExoI on pH (McIlvaine buffers in the pH range of 3.5–8.5 at 30 °C) and temperature (100 mM sodium acetate buffer, pH 5.25, temperature range 0–80 °C, 15 min incubations) were determined using 0.2% (w/v) 4NP-Glc[21],[59]. Relative rates of hydrolysis of β-linked poly-, oligosaccharides, and aryl-glucosides were determined using near-homogenous HvExoI at 50 pmoles. […] Kinetic parameters were calculated from the analyses of Michaelis-Menten plots with Grafit 7.0.3[62] and processed by a proportional weighted fit, using nonlinear regression. The relative rates of hydrolysis, kinetic, and inhibition data were rounded to one or two decimal points (Supplementary Tables 2–4).

Assay [2] deals with T1, HvExoI W434H mutant (Hordeum vulgare, UniProt Q9XEI3, W459H).
T1 sequence (Q9XEI3 26-630 W459H): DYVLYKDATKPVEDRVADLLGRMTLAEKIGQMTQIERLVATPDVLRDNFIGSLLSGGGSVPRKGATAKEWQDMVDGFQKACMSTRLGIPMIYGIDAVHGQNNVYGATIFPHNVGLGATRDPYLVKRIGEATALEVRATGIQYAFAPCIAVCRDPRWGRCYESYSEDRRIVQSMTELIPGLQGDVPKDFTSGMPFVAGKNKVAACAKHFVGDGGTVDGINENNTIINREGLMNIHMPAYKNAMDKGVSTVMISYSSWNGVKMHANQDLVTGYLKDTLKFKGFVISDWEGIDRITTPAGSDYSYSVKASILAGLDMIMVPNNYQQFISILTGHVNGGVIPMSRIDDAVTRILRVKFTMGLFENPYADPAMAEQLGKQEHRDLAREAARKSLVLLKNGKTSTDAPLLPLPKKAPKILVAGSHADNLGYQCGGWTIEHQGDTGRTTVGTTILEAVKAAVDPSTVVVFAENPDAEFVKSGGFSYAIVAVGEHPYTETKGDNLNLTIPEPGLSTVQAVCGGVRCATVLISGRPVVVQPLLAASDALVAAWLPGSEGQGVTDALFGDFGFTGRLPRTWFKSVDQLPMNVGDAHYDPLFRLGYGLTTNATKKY
The following applies: substance is the substrate. As for the experimental part:
as §1

The target of assay [3] is T2, HvExoI W434F mutant (Hordeum vulgare, UniProt Q9XEI3, W459F).
T2 sequence (Q9XEI3 26-630 W459F): T1 sequence (Q9XEI3 26-630 W459H) with H434F
Particulars: substance is the substrate, nd = activity not detected. As to the method:
as §1

The target in assay [4] is T3, HvExoI W286F mutant (Hordeum vulgare, UniProt Q9XEI3, W311F).
T3 sequence (Q9XEI3 26-630 W311F): T1 sequence (Q9XEI3 26-630 W459H) with W286F, H434W
Particulars: substance is the substrate, nd = activity not detected. As to the method: as §1

Assay [5] concerns the target T4, HvExoI W286Y mutant (Hordeum vulgare, UniProt Q9XEI3, W311Y).
T4 sequence (Q9XEI3 26-630 W311Y): T1 sequence (Q9XEI3 26-630 W459H) with W286Y, H434W
The following applies: substance is the substrate, nd = activity not detected. As to the method: as §1

Changes are numbered by the printed parent chain.

Sequence of WT HvExoI (Q9XEI3 entry or part of it): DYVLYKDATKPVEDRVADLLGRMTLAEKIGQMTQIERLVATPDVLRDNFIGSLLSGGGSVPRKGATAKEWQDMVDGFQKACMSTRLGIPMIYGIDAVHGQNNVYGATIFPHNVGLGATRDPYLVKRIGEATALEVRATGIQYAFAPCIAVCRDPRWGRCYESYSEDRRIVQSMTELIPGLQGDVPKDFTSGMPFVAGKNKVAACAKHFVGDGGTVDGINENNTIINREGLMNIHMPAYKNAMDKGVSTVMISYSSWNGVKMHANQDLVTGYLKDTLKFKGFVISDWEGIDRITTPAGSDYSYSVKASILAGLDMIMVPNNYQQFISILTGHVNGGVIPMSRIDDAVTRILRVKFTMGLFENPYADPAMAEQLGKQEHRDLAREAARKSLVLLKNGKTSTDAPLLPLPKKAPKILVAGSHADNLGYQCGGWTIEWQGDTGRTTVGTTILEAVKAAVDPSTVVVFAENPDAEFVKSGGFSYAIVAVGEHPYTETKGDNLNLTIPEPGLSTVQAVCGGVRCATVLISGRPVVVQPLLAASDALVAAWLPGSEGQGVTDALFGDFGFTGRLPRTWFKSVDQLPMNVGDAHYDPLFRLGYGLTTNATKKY

For the compound `OC[C@H]1O[C@@H](O[C@@H]2[C@@H](O)[C@H](O[C@@H]3[C@@H](O)[C@H](O[C@@H]4[C@@H](O)[C@H](O[C@@H]5[C@@H](O)[C@H](O[C@H]6[C@H](O)[C@@H](CO)OC(O)[C@@H]6O)O[C@H](CO)[C@H]5O)O[C@H](CO)[C@H]4O)O[C@H](CO)[C@H]3O)O[C@H](CO)[C@H]2O)[C@H](O)[C@@H](O)[C@@H]1O` (stereo partly drawn) [Laminarihexaose], the “Activity (relative rate of hydrolysis)” value in assay [1] is on record as 12.2 ± 0.1 μmole/min per mg protein; in assay [2], 1.5 ± 0.1 μmole/min per mg protein; in assay [3], 15.8 ± 1.0 μmole/min per mg protein; in assay [4] it was 1.1 ± 0.03 μmole/min per mg protein; in assay [5] it was 15.8 ± 0.1 μmole/min per mg protein.

As for Gentiobiose, the “Activity (relative rate of hydrolysis)” value was 4.7 ± 0.4 μmole/min per mg protein in assay [1]; 0.3 ± 0.02 μmole/min per mg protein in assay [2]; 1.2 ± 0.3 μmole/min per mg protein in assay [3]; 0.4 ± 0.03 μmole/min per mg protein in assay [4]; 7.6 ± 0.8 μmole/min per mg protein in assay [5].

In the case of `OC[C@H]1O[C@@H](O[C@@H]2[C@@H](O)[C@H](O[C@@H]3[C@@H](O)[C@H](O[C@@H]4[C@@H](O)[C@H](O[C@@H]5[C@@H](O)[C@H](O)O[C@H](CO)[C@H]5O)O[C@H](CO)[C@H]4O)O[C@H](CO)[C@H]3O)O[C@H](CO)[C@H]2O)[C@H](O)[C@@H](O)[C@@H]1O` [Laminaripentaose], the “Activity (relative rate of hydrolysis)” value came out at 11.7 ± 0.5 μmole/min per mg protein in assay [1]; 1.5 ± 0.1 μmole/min per mg protein in assay [2]; 14.6 ± 0.4 μmole/min per mg protein in assay [3]; 1.0 ± 0.01 μmole/min per mg protein in assay [4]; 14.8 ± 0.4 μmole/min per mg protein in assay [5].

`OC[C@H]1O[C@@H](O[C@@H]2[C@@H](O)[C@H](O[C@H]3[C@H](O)[C@@H](CO)OC(O)[C@@H]3O)O[C@H](CO)[C@H]2O)[C@H](O)[C@@H](O)[C@@H]1O` (stereo partly drawn) [Laminaritriose]: the “Activity (relative rate of hydrolysis)” value in assay [1] was determined as 12.4 ± 0.3 μmole/min per mg protein; in assay [2], 1.5 ± 0.04 μmole/min per mg protein; in assay [3], 18.4 ± 1.4 μmole/min per mg protein; in assay [4], 1.3 ± 0.01 μmole/min per mg protein; in assay [5], 14.1 ± 0.4 μmole/min per mg protein.

As to `OC[C@H]1O[C@@H](O[C@@H]2[C@@H](O)[C@H](O[C@@H]3[C@@H](O)[C@H](O[C@@H]4[C@@H](O)[C@H](O[C@@H]5[C@@H](O)[C@H](O[C@@H]6[C@@H](O)[C@H](O[C@@H]7[C@@H](O)[C@H](O)O[C@H](CO)[C@H]7O)O[C@H](CO)[C@H]6O)O[C@H](CO)[C@H]5O)O[C@H](CO)[C@H]4O)O[C@H](CO)[C@H]3O)O[C@H](CO)[C@H]2O)[C@H](O)[C@@H](O)[C@@H]1O` [Laminariheptaose], the “Activity (relative rate of hydrolysis)” value in assay [1] turned out to be 11.0 ± 0.8 μmole/min per mg protein; in assay [2] it was 1.6 ± 0.1 μmole/min per mg protein; in assay [3], 13.5 ± 0.4 μmole/min per mg protein; in assay [4], 1.2 ± 0.1 μmole/min per mg protein; in assay [5], 14.5 ± 2.0 μmole/min per mg protein.

In the case of `OC[C@H]1O[C@@H](O[C@H]2[C@H](O)[C@@H](O)[C@H](O[C@H]3[C@H](O)[C@@H](O)[C@H](O[C@H]4[C@H](O)[C@@H](O)C(O)O[C@@H]4CO)O[C@@H]3CO)O[C@@H]2CO)[C@H](O)[C@@H](O)[C@@H]1O` (stereo partly drawn) [Cellotetraose], the “Activity (relative rate of hydrolysis)” value in assay [1] worked out at 8.5 ± 0.7 μmole/min per mg protein; in assay [2], 0.2 ± 0.01 μmole/min per mg protein; in assay [3], 1.9 ± 0.1 μmole/min per mg protein; in assay [4] it was 0.1 ± 0.01 μmole/min per mg protein; in assay [5], 6.3 ± 1.1 μmole/min per mg protein.

The values above are taken from article PMC9508125, “The evolutionary advantage of an aromatic clamp in plant family 3 glycoside exo-hydrolases” (Nature Communications, 2022).
